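Five concentrations, 48 hours, 96-well plates. GI50: concentration for 50% inhibition of growth.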 The source made the active and inactive calls. Rule as the data show it: active = GI50 up to about 1.1 µM and inactive = higher.
Experiments:
Test in all cases: NCI-60 cell line screen, 48 h
HL-60 = test system: HL-60
OVCAR-5 = test system: OVCAR-5
SNB-75 = test system: SNB-75
SN12C = test system: SN12C
DLD-1 = test system: DLD-1
SK-MEL-28 = test system: SK-MEL-28
UACC-257 = test system: UACC-257
786-0 = test system: 786-0
Malme-3M = test system: Malme-3M
SK-MEL-2 = test system: SK-MEL-2
SNB-19 = test system: SNB-19
SF-295 = test system: SF-295
HOP-92 = test system: HOP-92
SK-MEL-5 = test system: SK-MEL-5
OVCAR-3 = test system: OVCAR-3
UO-31 = test system: UO-31
CAKI-1 = test system: CAKI-1
K562 = test system: K562
SNB-78 = test system: SNB-78
CCRF-CEM = test system: CCRF-CEM
NCI-H23 = test system: NCI-H23
OVCAR-8 = test system: OVCAR-8
HCC 2998 = test system: HCC 2998
SR = test system: SR
LXFL 529 = test system: LXFL 529
DMS-273 = test system: DMS-273
SW-620 = test system: SW-620
M19-MEL = test system: M19-MEL
NCI-H226 = test system: NCI-H226
UACC-62 = test system: UACC-62
EKVX = test system: EKVX
A549 = test system: A549
RPMI-8226 = test system: RPMI-8226
TK-10 = test system: TK-10
IGROV-1 = test system: IGROV-1
KM12 = test system: KM12
SF-268 = test system: SF-268
SK-OV-3 = test system: SK-OV-3
U-251 = test system: U-251
A498 = test system: A498
RXF 393 = test system: RXF 393
MOLT-4 = test system: MOLT-4
NCI-H460 = test system: NCI-H460
SF-539 = test system: SF-539
ACHN = test system: ACHN
COLO 205 = test system: COLO 205
HT-29 = test system: HT-29
NCI-H522 = test system: NCI-H522
HCT-116 = test system: HCT-116
DMS-114 = test system: DMS-114
OVCAR-4 = test system: OVCAR-4
HOP-62 = test system: HOP-62
M14 = test system: M14

Measured: GI50

CC1=NN(C(=O)c2ccc([N+](=O)[O-])cc2)C(=O)C1/N=N/c1ccccc1C(=O)O (stereo unspecified)
inactive: HL-60 90.2 µM | OVCAR-5 > 100 µM | SNB-75 51.2 µM | SN12C > 100 µM | DLD-1 > 100 µM | SK-MEL-28 > 100 µM | UACC-257 > 100 µM | 786-0 > 100 µM | Malme-3M > 100 µM | SK-MEL-2 > 100 µM | SNB-19 > 100 µM | SF-295 > 100 µM | HOP-92 45 µM | SK-MEL-5 > 100 µM | OVCAR-3 > 100 µM | UO-31 > 100 µM | CAKI-1 > 100 µM | K562 71.3 µM | SNB-78 > 100 µM | CCRF-CEM 75 µM | NCI-H23 > 100 µM | OVCAR-8 > 100 µM | HCC 2998 > 100 µM | SR > 10 µM | LXFL 529 > 100 µM | DMS-273 > 100 µM | SW-620 > 100 µM | M19-MEL > 100 µM | NCI-H226 32.1 µM | UACC-62 45 µM | EKVX > 100 µM | A549 > 100 µM | RPMI-8226 > 100 µM | TK-10 > 100 µM | IGROV-1 > 100 µM | KM12 > 100 µM | SF-268 > 100 µM | SK-OV-3 53.6 µM | U-251 99.1 µM | A498 > 100 µM | RXF 393 > 100 µM | MOLT-4 > 100 µM | NCI-H460 > 100 µM | SF-539 > 100 µM | ACHN > 100 µM | COLO 205 > 100 µM | HT-29 > 100 µM | NCI-H522 79.4 µM | HCT-116 > 100 µM | DMS-114 > 100 µM

CCCSc1nc(COC(=O)NC)c(COC(=O)NC)n1C
inactive: HL-60 29.4 µM | OVCAR-4 93.3 µM | SNB-75 49 µM | SN12C 88.7 µM | DLD-1 > 100 µM | SK-MEL-28 > 100 µM | 786-0 69.5 µM | Malme-3M 86.5 µM | SK-MEL-2 53.2 µM | HOP-92 56 µM | HOP-62 80.7 µM | UO-31 57.1 µM | CAKI-1 32.8 µM | K562 46.2 µM | SNB-78 63.2 µM | CCRF-CEM 29.6 µM | NCI-H23 54.2 µM | SR 29.4 µM | LXFL 529 36.3 µM | DMS-273 48.9 µM | M19-MEL 88.1 µM | UACC-62 80.2 µM | M14 > 100 µM | RPMI-8226 25 µM | U-251 98.2 µM | A498 46 µM | MOLT-4 21.2 µM | NCI-H460 39.7 µM | SF-539 64.1 µM | ACHN 23.9 µM | DMS-114 58.2 µM

— ChEMBL document CHEMBL1201862, “PubChem BioAssay data set” (2004)
